Results on nine molecules are retold here after US5658905A, “Use of triazine compounds as anxiolytics” (priority 1993, dated 1997).

Counter-ions that a name gives are not always drawn. Like-named read-outs stand apart in the source and are kept apart here.

Data set [1] in a line: Vogel conflict (punished drinking) model of anxiety.
The conditions of data set [2]: isethionate salt, EP-A-0 247 892, cited from earlier work.
The test system of data set [3] is voltage-sensitive sodium channels. Particulars: Lang et al 1993; Lees and Leach 1993; cited from earlier work.
In data set [4] the test system is mice. Description: Orientative acute oral toxicity (LD50) in mice. The class given is in vivo. Particulars: 50% survive 10 days after administration. From the text:
(§1) The present compounds are non-toxic at prophylactically and therapeutically effective doses. […] These are the dose levels at which 50% of the animals survive 10 days after administration of compound A.

For data set [5], the system named is release of excitatory amino acids, principally glutamate. Particulars: at anticonvulsant brain concentrations; Leach et al 1986; Zhu and McGee 1990; cited from earlier work.
Data set [6] can be described thus: Orientative acute oral toxicity (LD50) in rats. Particulars: rat, in vivo, 50% survive 10 days after administration.
Source text: as §1

The conditions of data set [7]: reported; models not named; cited from earlier work.
[8] abbreviates: Rattus norvegicus, po, 1 h, read-out: number of licks, percentage of vehicle control responding, 40 mg/kg p.o., one hour before test, vehicle=100% (Table 3).
Where [9] appears, read: Rattus norvegicus, po, 1 h, read-out: number of licks, percentage of vehicle control responding, 80 mg/kg p.o., one hour before test, vehicle=100% (Table 3).
The mark [10] stands for this setting: Rattus norvegicus, po, 1 h, read-out: number of licks, percentage of vehicle control responding, 160 mg/kg p.o., one hour before test, vehicle=100% (Table 3).
[11] abbreviates: Rattus norvegicus, 1 h, read-out: number of licks, percentage of vehicle control responding.
Setting [12] is: dose-response across tested doses, significance p<0.05, Mann-Whitney U-test.
Setting [13] is: Rattus norvegicus, po, 1 h, read-out: number of licks, percentage of vehicle control responding, 20 mg/kg p.o., one hour before test, vehicle=100% (Table 3).
[14] abbreviates: Rattus norvegicus, sc, 20 min, read-out: number of licks, percentage of vehicle control responding.
[15] abbreviates: Rattus norvegicus, po, 1 h, read-out: number of licks, percentage of vehicle control responding.

Take `CCC1(C)CC(=O)NC1=O` (stereo not drawn) [Ethosuximide]: the response vs control in vivo at 40 mg/kg in data set [1] (setting [8]) was found to be 64%. The response vs control in vivo at 80 mg/kg in data set [1] (setting [9]) was 133%. The response vs control in vivo at 160 mg/kg in data set [1] (setting [10]) amounted to 61%. The response vs control in vivo at 320 mg/kg in data set [1] (Rattus norvegicus, po, 1 h, read-out: number of licks, percentage of vehicle control responding, 320 mg/kg p.o., one hour before test, vehicle=100% (Table 3)) was found to be 96%.
For `Nc1nnc(-c2cccc(Cl)c2Cl)c(N)n1` [Compound A isethionate, 3,5-diamino-6-(2,3-dichlorophenyl)-1,2,4-triazine isethionate], the other behavioural changes result in data set [1] (10, 20, 40 mg/kg base equivalent p.o.) is given as “no other behavioural changes were observed”. In addition, in data set [1] (setting [11]), the response vs control in vivo at 10 mg/kg is 92%, the response vs control in vivo at 20 mg/kg was determined as 165% and the response vs control in vivo at 40 mg/kg was found to be 208%. Also, the “effect on punished responding (in words)” value in data set [1] (setting [12]) is “dose-related increase in punished responding at 20 and 40 mg/kg, that at the latter dose being significant”. Moreover, in data set [2], the solubility result is listed as “good solubility”. In addition, in data set [2] (listed as salt with isethionic acid), the solubility entry is “particularly good solubility”.
Usually LD50 stands for the dose expected to kill half of the subjects tested. A high value points to lower toxicity. For the molecule `Nc1nnc(-c2cccc(Cl)c2Cl)c(N)n1` [Compound A, 3,5-Diamino-6-(2,3-dichlorophenyl)-1,2,4-triazine], the “block of voltage-sensitive sodium channels” value in data set [3] is recorded as “use-dependent block of voltage-sensitive sodium channels”. Moreover, the “acute oral toxicity (LD50)” value in data set [4] is recorded as 250 mg/kg. In addition, the “inhibition of release of excitatory amino acids, principally glutamate” value in data set [5] is reported as “inhibit the release of excitatory. amino acids, principally glutamate”. The same molecule had a 50% lethal dose (LD50) at 240 h in data set [6] of 640 mg/kg.
Turning to `NC(=O)N1c2ccccc2C=Cc2ccccc21` [Carbamazepine], the “effect on punished responding (in words)” value in data set [1] (5.0 mg/kg p.o.) is given as “no effect”; in data set [1] (20 mg/kg p.o.), “non-significant increase in PR”; in data set [1] (setting [12]), “dose-related, significant increase in punished responding”. Also, in data set [1] (Rattus norvegicus, po, 1 h, read-out: number of licks, percentage of vehicle control responding, 5.0 mg/kg p.o., one hour before test, vehicle=100% (Table 2)), the response vs control in vivo at 5 mg/kg was 87%. In addition, in data set [1] (Rattus norvegicus, po, 1 h, read-out: number of licks, percentage of vehicle control responding, 10 mg/kg p.o., one hour before test, vehicle=100% (Table 3)), the response vs control in vivo at 10 mg/kg turned out to be 154%. Also, the response vs control in vivo at 20 mg/kg in data set [1] (Rattus norvegicus, po, 1 h, read-out: number of licks, percentage of vehicle control responding, 20.0 mg/kg p.o., one hour before test, vehicle=100% (Table 2)) was found to be 161%; in data set [1] (setting [13]), 206%. Besides, the response vs control in vivo at 40 mg/kg in data set [1] (setting [8]) turned out to be 219%. In data set [1] (setting [9]), the response vs control in vivo at 80 mg/kg amounted to 309%.
On to `CN1C(=O)CN=C(c2ccccc2)c2cc(Cl)ccc21` [Diazepam, 7-chloro-1,3-dihydro-1-methyl-5-phenyl-2H-1,4-benzodiazepin-2-one], for which the ataxia entry in data set [1] (1.0 mg/kg s.c.) is “accompanied by ataxia”. Further, in data set [1] (setting [14]), the response vs control in vivo at 0.5 mg/kg is 162% and the response vs control in vivo at 1 mg/kg worked out at 296%. Moreover, in data set [1] (setting [12]), the “effect on punished responding (in words)” value is “dose-related increase in punished responding (PR) at 0.5 and 1.0 mg/kg. This effect was large and significant”.
As to `CCCC(CCC)C(=O)O` [Sodium valproate], in data set [1] (setting [15]), the response vs control in vivo at 40 mg/kg was 79%, the response vs control in vivo at 80 mg/kg was 108%, the response vs control in vivo at 160 mg/kg turned out to be 151% and the response vs control in vivo at 320 mg/kg was found to be 261%.
Take `O=C1NC(=O)C(c2ccccc2)(c2ccccc2)N1` [Phenytoin sodium]: the “effect on punished responding (in words)” value in data set [1] (10 or 40 mg/kg p.o.) is listed as “no effect on PR”. The response vs control in vivo at 10 mg/kg in data set [1] (Rattus norvegicus, po, 1 h, read-out: number of licks, percentage of vehicle control responding, 10.0 mg/kg p.o. (parent acid equivalent), one hour before test, vehicle=100% (Table 2)) is 121%. Moreover, the response vs control in vivo at 20 mg/kg in data set [1] (setting [13]) amounted to 101%. Also, the response vs control in vivo at 40 mg/kg in data set [1] (Rattus norvegicus, po, 1 h, read-out: number of licks, percentage of vehicle control responding, 40.0 mg/kg p.o. (parent acid equivalent), one hour before test, vehicle=100% (Table 2)) stood at 114%; in data set [1] (setting [8]), 135%. In addition, in data set [1] (setting [9]), the response vs control in vivo at 80 mg/kg was found to be 220%. Also, the response vs control in vivo at 160 mg/kg in data set [1] (setting [10]) stood at 173%.
Turning to `Cc1nccn1CC1CCc2c(c3ccccc3n2C)C1=O` (stereo not drawn) [Ondansetron hydrochloride], the response vs control in vivo at 0.0001 mg/kg in data set [1] (Rattus norvegicus, po, 1 h, read-out: number of licks, percentage of vehicle control responding, 0.1 μg/kg p.o., one hour before test, vehicle=100% (Table 3)) was 68%. In addition, the response vs control in vivo at 0.001 mg/kg in data set [1] (Rattus norvegicus, po, 1 h, read-out: number of licks, percentage of vehicle control responding, 1.0 μg/kg p.o., one hour before test, vehicle=100% (Table 3)) was 80%. Moreover, in data set [1] (Rattus norvegicus, po, 1 h, read-out: number of licks, percentage of vehicle control responding, 10 μg/kg p.o., one hour before test, vehicle=100% (Table 3)), the response vs control in vivo at 0.01 mg/kg came out at 70%. The response vs control in vivo at 0.1 mg/kg in data set [1] (Rattus norvegicus, po, 1 h, read-out: number of licks, percentage of vehicle control responding, 100 μg/kg p.o., one hour before test, vehicle=100% (Table 3)) was determined as 87%. Further, the “effect on punished responding (in words)” value in data set [1] (setting [12]) is recorded as “lack of any significant anxiolytic effect”. Moreover, in data set [7], the “anxiolytic effects in other animal models” value is on record as “reported to exhibit anxiolytic effects in other animal models”.
Take `CN1[C@@H]2CC[C@H]1C[C@@H](OC(=O)c1cc(Cl)cc(Cl)c1)C2` [Bemesetron]: in data set [1] (setting [15]), the response vs control in vivo at 0.0001 mg/kg came out at 89%, the response vs control in vivo at 0.001 mg/kg came to 129%, the response vs control in vivo at 0.01 mg/kg was 156% and the response vs control in vivo at 0.1 mg/kg stood at 116%. Further, the “effect on punished responding (in words)” value in data set [1] (setting [12]) is listed as “lack of any significant anxiolytic effect”. Besides, the “anxiolytic effects in other animal models” value in data set [7] was “reported to exhibit anxiolytic effects in other animal models”.
